Assay results as given in patent US20240197666A1, “DITERPENOID COMPOUNDS THAT ACT ON PROTEIN KINASE C (PKC)” (K-Gen Therapeutics, Inc., priority 2021, published 2024).
Where two headings read alike, the source gives them in different places.

Assays:
HL-60 (Leukemia) = test: Proliferation of HL-60; type: cell-based; details: for IC50: Homo sapiens, HL-60, read-out: IC50 HL-60 (Leukemia)
Description: (§1) The diterpenoid compounds were tested in A549, a non-small cell lung cancer cell line harboring a K-Ras activating mutation. Briefly, A549 cells at a density of 1,000 cells/well were seeded in 96-well plates and incubated at 37° C. for 24 hours. A series of different concentrations of compound stocks (500×) were prepared by 3-fold serial dilution in DMSO. These compounds were further diluted in culture media and then added to cells so that the final DMSO concentration was not exceeding 0.25%. After 96 hours of incubation, 50 μL of CellTiter Glo reagent (Promega) was added to each well and luminescence was measured after 10 minutes using EnVision (PerkinElmer). Luminescence from cells treated with DMSO alone was set as Max and % of inhibition was calculated as follows: Inhibition %=(Max-Sample value)/Max×100. Data was analyzed using XL-fit software (ID Business Solutions Ltd.) and IC50, relative IC50, and % of top inhibition was calculated. Some of the compounds in this disclosure were very potent in blocking proliferation of A549 lung cancer cells at low nM range. In addition, potency of inhibiting A549 proliferation correlated well with its binding affinity to PKCs for this series of compounds. In other words, higher affinity binders had stronger inhibitory effects on A549 proliferation. This further support the notion that activation, rather than inhibition, of certain PKC isoforms is required to block proliferation of cancer cells, some of which may harbor K-Ras mutations. This is in sharp contrast to previous literature and common belief that inhibition of PKC is necessary to block cancer cell growth (Kang, 2014, New Journal of Science, 2014:1-36). Data presented here is in agreement with recent findings that many loss-of-function but not gain-of-function mutations of PKC isoforms have been identified in many human cancers (Antal et al., 2015, Cell, 160:489-502).
(§2) The compounds in this disclosure were tested for their potency in blocking proliferation of a few other cancer cells lines, including K-Ras mutant pancreatic cell lines Panc2.13 and KP-4, leukemia cell line HL-60, and lymphoma cell lines Namalwa and Mino. Similar procedures as in Example 67 were followed. Initial cell numbers seeded in 96-well plates were different for different cell lines: 3000 cells/well for Panc2.13; 800-1000 cells/well for KP-4; 5000 cells/well for HL-60; 5000-10000 cells/well for Namalwa and Mino. A ratio of (IC50 of K101)/(IC50 of compound) (data in parenthesis in Table 5) was used to normalize the compound potency from different assay batches to a common comparator K101.

A549 cell line = test: Proliferation of A549 (CellTiter Glo); type: cell-based; details: read-out: IC50 μM (A549 Cell Line)
Description: as §1

[1] = test system: NFκB-driven transcription in HeLa-NFκB luciferase reporter cell line; test: NFκB luciferase reporter assay; details: for EC50: Homo sapiens, HeLa, 16 h, read-out: NFκB-luc HeLa cells EC50 (μM)
Mino (Lymphoma) = test: Proliferation of Mino; type: cell-based; details: for IC50: Homo sapiens, MINO, read-out: IC50 Mino (Lymphoma)
Description: as §1, §2

Namalwa (Lymphoma) = test: Proliferation of Namalwa; type: cell-based; details: for IC50: read-out: IC50 Namalwa (Lymphoma)
Description: as §1, §2

C1b domain of human PKCδ = biological target: T1, C1b domain of human PKCδ (Homo sapiens, UniProt Q05655); test: biochemical; type: binding; details: 3H-PDBu competition
T1 construct: Genes encoding C1b domains of human PKCα, δ, ε, θ, and PKD1 (PKCμ) were synthesized; made in house; host or cells: E. coli BL21(DE3)
T1 sequence (Q05655 230-280 limits assumed): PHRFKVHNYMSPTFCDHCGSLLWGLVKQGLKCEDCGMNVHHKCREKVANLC
Description: Compounds described in this disclosure were tested for binding affinity to C1b domain of PKC isoforms. Compound binding affinity to C1b domain of PKC isoforms was derived from competitive binding assay using radioactive tracer ^3H-PDBu and recombinant GST-C1b or full-length of human PKC proteins based on modified procedures from Methods in Molecular Biology, vol.
Genes encoding C1b domains of human PKCα, δ, ε, θ, and PKD1 (PKCμ) were synthesized and inserted into pGEX-2TK or pGEX-4T1 vectors for expression and production of GST-C1b proteins in E. coli BL21(DE3) via IPTG induction. The target proteins were purified by glutathione sepharose 4B and followed by ion exchange chromatography if needed to achieve purity >70%. Aliquots of the purified proteins were stored at −80 degree for binding assay (storage buffer: 20 mM Tris pH 8.0, 200 mM NaCl, 10% glycerol, 1 mM DTT).
The plate was incubated at 37° C. on a shaker at 300 rpm for 10 minutes and then put on ice for 20 minutes. […] The bottom of the filter plate was sealed and 50 μL of MicroScint-20 (PerkinElmer) cocktail was added to each well. ^3H-PDBu trapped in each well was counted using PerkinElmer MicroBeta2 Reader. Data were analyzed using GraphPad Prism5 with the model “log(inhibitor) vs. response-variable slope” to fit the IC50, and then IC50 was transformed to Ki using Cheng-Prusoff equation: Ki=IC50/(1+added radio ligand/Kd). Kd is the binding affinity of each protein preparation to ^3H-PDBu, determined experimentally.

human PBMC cells = test: Cytokine/chemokine gene expression in human PBMC (TaqMan); type: cell-based; details: 4 h, 1 μM;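 for Gene Relative Expression CCL2: 2^-ΔΔCt fold change vs DMSO control normalized to 18S and GAPDH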;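 for Gene Relative Expression GM-CSF: 2^-ΔΔCt fold change vs DMSO control normalized to 18S and GAPDH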;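 for Gene Relative Expression IFN-α: 2^-ΔΔCt fold change vs DMSO control normalized to 18S and GAPDH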;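 for Gene Relative Expression IFNγ: 2^-ΔΔCt fold change vs DMSO control normalized to 18S and GAPDH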
Description: Each treatment condition was performed in duplicates.

CC1=C[C@H]2[C@@]3(O)[C@H](C)C[C@]4(OC(=O)CCCc5ccccc5)[C@H]([C@@H]3C=C(CO)C[C@]2(O)C1=O)C4(C)C
ratio (IC50 of K101)/(IC50 of compound) HL-60 (HL-60 (Leukemia)): 32.7 | IC50 (HL-60 (Leukemia)): 0.01 to 0.03 µM | IC50 (A549 cell line; Homo sapiens, A549, 96 h): 0.01 to 0.03 µM | EC50 [1]: 0.01 to 0.03 µM | ratio (IC50 of K101)/(IC50 of compound) Mino (Mino (Lymphoma)): 37.5 | IC50 (Mino (Lymphoma)): 0.001 to 0.01 µM | ratio (IC50 of K101)/(IC50 of compound) Namalwa (Namalwa (Lymphoma)): 8.63 | IC50 (Namalwa (Lymphoma)): 0.001 to 0.01 µM

CC1=C[C@H]2[C@@]3(O)[C@H](C)C[C@]4(OC(=O)[C@@H](N)C56CC(F)(C5)C6)[C@H]([C@@H]3C=C(CO)C[C@]2(O)C1=O)C4(C)C
IC50 (A549 cell line; 96 hours, CellTiter Glo): 10 to 30 µM

CC1=C[C@H]2[C@@]3(O)[C@H](C)C[C@]4(OC(=O)C[C@@H](N)CCc5ccccc5)[C@H]([C@@H]3C=C(CO)C[C@]2(O)C1=O)C4(C)C
IC50 (A549 cell line; Homo sapiens, A549, 96 h): 0.6 to 1 µM | Ki (C1b domain of human PKCδ): 0.01 to 0.03 µM

CC1=C[C@H]2[C@@]3(O)[C@H](C)C[C@]4(OC(=O)CCc5c[nH]c6ncccc56)[C@H]([C@@H]3C=C(CO)C[C@]2(O)C1=O)C4(C)C
IC50 (A549 cell line; Homo sapiens, A549, 96 h): 2 to 5 µM

CCOCc1nc2c(N)nc3ccccc3c2n1CC(C)(C)O [Resiquimod, reference compound]
Gene Relative Expression CCL2 (human PBMC cells): 3.73 | Gene Relative Expression GM-CSF (human PBMC cells): 8.79 | Gene Relative Expression IFN-α (human PBMC cells): 1.47 | Gene Relative Expression IFNγ (human PBMC cells): 1.28 | Gene Relative Expression IL-1β (human PBMC cells): 101.63 | Gene Relative Expression IL-2 (human PBMC cells): 1.21 | Gene Relative Expression IL-6 (human PBMC cells): 487.14 | Gene Relative Expression IL-8 (human PBMC cells): 9.87 | Gene Relative Expression IL-10 (human PBMC cells): 5.65 | Gene Relative Expression IL-12p40 (human PBMC cells): 786.39 | Gene Relative Expression IL-12p70 (human PBMC cells): 2.48 | Gene Relative Expression IL-13 (human PBMC cells): 3.52 | Gene Relative Expression IL-18 (human PBMC cells): 1.33 | Gene Relative Expression ISG15 (human PBMC cells): 14.75 | Gene Relative Expression MIP1a (CCL3) (human PBMC cells): 47.71 | Gene Relative Expression MX1 (human PBMC cells): 17.00 | Gene Relative Expression OAS1 (human PBMC cells): 12.66 | Gene Relative Expression TNF-α (human PBMC cells): 7.38

CC1=C[C@H]2[C@@]3(O)[C@H](C)C[C@]4(OC(=O)CCCCCCCCCCC(=O)O)[C@H]([C@@H]3C=C(CO)C[C@]2(O)C1=O)C4(C)C
IC50 (A549 cell line; Homo sapiens, A549, 96 h): 10 to 30 µM

CSCC[C@H](N)C(=O)O[C@@]12C[C@@H](C)[C@@]3(O)[C@@H](C=C(CO)C[C@]4(O)C(=O)C(C)=C[C@@H]34)[C@@H]1C2(C)C
IC50 (A549 cell line; Homo sapiens, A549, 96 h): 5 to 10 µM

CC1=C[C@H]2[C@@]3(O)[C@H](C)C[C@]4(OC(=O)CCc5ccc(C(F)(F)F)cc5)[C@H]([C@@H]3C=C(CO)C[C@]2(O)C1=O)C4(C)C
ratio (IC50 of K101)/(IC50 of compound) HL-60 (HL-60 (Leukemia)): 72 | IC50 (HL-60 (Leukemia)): 0.001 to 0.01 µM | IC50 (A549 cell line; Homo sapiens, A549, 96 h): 0.01 to 0.03 µM | EC50 [1]: 0.01 to 0.03 µM | ratio (IC50 of K101)/(IC50 of compound) Mino (Mino (Lymphoma)): 75 | IC50 (Mino (Lymphoma)): < 0.001 µM | ratio (IC50 of K101)/(IC50 of compound) Namalwa (Namalwa (Lymphoma)): 13.8 | IC50 (Namalwa (Lymphoma)): 0.001 to 0.01 µM

CC1=C[C@H]2[C@@]3(O)[C@H](C)C[C@]4(OC(=O)[C@@H](N)Cc5c[nH]c6ccccc56)[C@H]([C@@H]3C=C(CO)C[C@]2(O)C1=O)C4(C)C
IC50 (A549 cell line; Homo sapiens, A549, 96 h): 10 to 30 µM | Ki (C1b domain of human PKCδ): 0.01 to 0.03 µM

CC1=C[C@H]2[C@@]3(O)[C@H](C)C[C@]4(OC(=O)[C@@H](N)C5Cc6ccccc6C5)[C@H]([C@@H]3C=C(CCl)C[C@]2(O)C1=O)C4(C)C
IC50 (A549 cell line; 96 hours, CellTiter Glo): 0.06 to 0.1 µM

CC1=C[C@H]2[C@@]3(O)[C@H](C)C[C@]4(OC(=O)[C@@H](N)CC5CC5)[C@H]([C@@H]3C=C(CO)C[C@]2(O)C1=O)C4(C)C
IC50 (A549 cell line; Homo sapiens, A549, 96 h): 2 to 5 µM | Ki (C1b domain of human PKCδ): 0.06 to 0.1 µM

CN1CCN(c2nc(C3=C(c4c[nH]c5ccccc45)C(=O)NC3=O)c3ccccc3n2)CC1 [Sotrastaurin, reference compound]
block of NFκB activation induced by PKC activator compounds ([1]; PKC inhibitor added at the same time as the PKC activator compounds): completely block

CCCC[C@H](N)C(=O)O[C@@]12C[C@@H](C)[C@@]3(O)[C@@H](C=C(CO)C[C@]4(O)C(=O)C(C)=C[C@@H]34)[C@@H]1C2(C)C
IC50 (A549 cell line; Homo sapiens, A549, 96 h): 0.6 to 1 µM | Ki (C1b domain of human PKCδ): 0.01 to 0.03 µM

CC1=C[C@H]2[C@@]3(O)[C@H](C)C[C@]4(OC(=O)[C@H](N)C56CC(F)(C5)C6)[C@H]([C@@H]3C=C(CO)C[C@]2(O)C1=O)C4(C)C
IC50 (A549 cell line; 96 hours, CellTiter Glo): 10 to 30 µM
